From US20120309750A1, “5-MEMBERED HETEROCYCLE DERIVATIVES AND MANUFACTURING PROCESS THEREOF” (ILDONG PHARM CO., LTD., priority 2010, published 2012)

How the values were obtained:
[1] = target: yeast HSP90 (Saccharomyces cerevisiae, UniProt P02829); test: Hsp90 ATPase assay (malachite green); type: biochemical
Experimental: (§1) For present invention, the ATPase activity of yeast HSP90 was measured using malachite green assay. Formula I compounds for primary antitumoral activity were treated in human colorectal cancer cells (HCT116) showing increased expression levels of HSP90 client protein and cotoxicity IC50 values was measured as a result.

[2] = system: human colorectal cancer cells (HCT116); test: Growth inhibition assay (cytotoxicity) in HCT116; type: cell-based; conditions: HCT-116
Experimental: as §1

Sequence of yeast HSP90 (P02829 whole entry): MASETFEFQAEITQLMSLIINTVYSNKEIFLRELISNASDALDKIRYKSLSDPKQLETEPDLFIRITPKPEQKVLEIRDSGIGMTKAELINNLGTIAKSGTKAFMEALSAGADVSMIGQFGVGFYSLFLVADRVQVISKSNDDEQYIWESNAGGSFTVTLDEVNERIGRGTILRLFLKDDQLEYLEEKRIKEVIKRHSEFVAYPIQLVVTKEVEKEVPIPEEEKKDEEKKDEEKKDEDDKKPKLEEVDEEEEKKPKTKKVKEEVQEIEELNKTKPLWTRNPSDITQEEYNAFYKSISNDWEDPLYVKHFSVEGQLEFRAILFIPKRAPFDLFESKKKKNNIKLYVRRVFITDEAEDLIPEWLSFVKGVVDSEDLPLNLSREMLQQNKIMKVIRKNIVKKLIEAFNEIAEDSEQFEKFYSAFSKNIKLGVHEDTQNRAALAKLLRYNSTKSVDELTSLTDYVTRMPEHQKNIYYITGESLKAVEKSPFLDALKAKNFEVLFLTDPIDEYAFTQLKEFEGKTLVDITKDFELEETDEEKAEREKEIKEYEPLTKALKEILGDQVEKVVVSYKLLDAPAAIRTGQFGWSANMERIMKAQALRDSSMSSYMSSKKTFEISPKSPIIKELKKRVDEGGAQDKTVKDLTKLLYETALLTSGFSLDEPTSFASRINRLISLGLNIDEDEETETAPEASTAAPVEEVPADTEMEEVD

Row | Compound | IC50 [1] [nM] | IC50 [2] [nM]
1 | CCNC(=O)c1noc(-c2cc(C(C)C)c(O)cc2O)c1-c1cc(CC#N)no1 [Compound I-35, 3′-(Cyanomethyl)-5-(2,4-dihydroxy-5-isopropylphenyl)-N-ethyl-4,5′-biisoxazole-3-carboxamide] | < 500 | < 500
2 | CCNC(=O)c1noc(-c2cc(C(C)C)c(O)cc2O)c1-c1cc(CN2CCCCC2)no1 [Compound I-38, 5-(2,4-Dihydroxy-5-isopropylphenyl)-N-ethyl-3′-(piperidin-1-ylmethyl)-4,5′-biisoxazole-3-carboxamide] | 500 to 1000 | < 500
3 | CCNC(=O)c1noc(-c2cc(C(C)C)c(O)cc2O)c1-c1cc(CN2CCCC2)no1 [Compound I-39, 5-(2,4-Dihydroxy-5-isopropylphenyl)-N-ethyl-3′-(pyrrolidin-1-ylmethyl)-4,5′-biisoxazole-3-carboxamide] | 500 to 1000 | < 500
4 | CCNC(=O)c1noc(-c2cc(C(C)C)c(O)cc2O)c1-c1cc(CN(C)C)no1 [Compound I-41, 5-(2,4-Dihydroxy-5-isopropylphenyl)-3′-((dimethylamino)methyl)-N-ethyl-4,5′-biisoxazole-3-carboxamide] | < 500 | < 500
5 | CCNC(=O)c1noc(-c2cc(C(C)C)c(O)cc2O)c1-c1cc(CN2CCN(C)CC2)no1 [Compound I-43, 5-(2,4-Dihydroxy-5-isopropylphenyl)-N-ethyl-3′-((4-methylpiperazin-1-yl)methyl)-4,5′-biisoxazole-3-carboxamide] | 500 to 1000 | < 500
6 | C=CCNCc1cc(-c2c(C(=O)NCC)noc2-c2cc(C(C)C)c(O)cc2O)on1 [Compound I-44, 3′-((Allylamino)methyl)-5-(2,4-dihydroxy-5-isopropylphenyl)-N-ethyl-4,5′-biis oxazole-3-carboxamide] | < 500 | < 500
7 | CCNC(=O)c1noc(-c2cc(C(C)C)c(O)cc2O)c1-c1cc(-c2ccsc2)no1 [Compound I-46, 5-(2,4-Dihydroxy-5-isopropylphenyl)-N-ethyl-3′-(thiophen-3-yl)-4,5′-biisoxazole-3-carboxamide] | 500 to 1000 | < 500

Now from value to molecule, other results behind:

Row | IC50 [1] [nM] | Compound | IC50 [2] [nM]
8 | < 500 | CCNC(=O)c1noc(-c2cc(C(C)C)c(O)cc2O)c1-c1cc(CNC(=O)CC)no1 [Compound I-34, 5-(2,4-Dihydroxy-5-isopropylphenyl)-N-ethyl-3′-(propionamidomethyl)-4,5′-biisoxazole-3-carboxamide] | < 500
9 | < 500 | CCNC(=O)c1noc(-c2cc(C(C)C)c(O)cc2O)c1-c1cc(COCC(N)=O)no1 [Compound I-36, 3′-((2-Amino-2-oxoethoxy)methyl)-5-(2,4-dihydroxy-5-isopropylphenyl)-N-ethyl-4,5′-biisoxazole-3-carboxamide] | < 500
10 | < 500 | CCNC(=O)c1noc(-c2cc(C(C)C)c(O)cc2O)c1-c1cc(C)no1 [Compound I-37, 5-(2,4-Dihydroxy-5-isopropylphenyl)-N-ethyl-3′-methyl-4,5′-biisoxazole-3-carboxamide] | < 500
11 | 500 to 1000 | CCNC(=O)c1noc(-c2cc(C(C)C)c(O)cc2O)c1-c1cc(CNC(C)C)no1 [Compound I-40, 5-(2,4-Dihydroxy-5-isopropylphenyl)-N-ethyl-3′-((isopropylamino)methyl)-4,5′-biisoxazole-3-carboxamide] | < 500
12 | < 500 | CCNC(=O)c1noc(-c2cc(C(C)C)c(O)cc2O)c1-c1cc(CNC)no1 [Compound I-42, 5-(2,4-Dihydroxy-5-isopropylphenyl)-N-ethyl-3′-((methylamino)methyl)-4,5′-biisoxazole-3-carboxamide] | < 500
13 | < 500 | CCCN(CCC)Cc1cc(-c2c(C(=O)NCC)noc2-c2cc(C(C)C)c(O)cc2O)on1 [Compound I-45, 5-(2,4-Dihydroxy-5-isopropylphenyl)-3′-((dipropylamino)methyl)-N-ethyl-4,5′-biisoxazole-3-carboxamide] | < 500
